Source: ChEMBL document CHEMBL1240532, “Spiroindolones, a potent compound class for the treatment of malaria” (Science, 2010)
In brackets after ≈: the same amount, converted by molar mass.

Experiments:
[1] = Cytotoxicity against human THP1 cells after 4 days by XTT assay; type: cell-based; conditions: THP-1 cells
[2] = Cytotoxicity against human HepG2 cells after 4 days by XTT assay; type: cell-based
[3] = molecular target: Beta-1 adrenergic receptor (Homo sapiens, UniProt P08588); assay: Binding affinity to human recombinant adrenergic beta-1 receptor
[4] = molecular target: Alpha-2B adrenergic receptor (Homo sapiens, UniProt P18089); assay: Binding affinity to human recombinant alpha2b receptor
[5] = molecular target: Alpha-2C adrenergic receptor (Homo sapiens, UniProt P18825); assay: Binding affinity to human recombinant alpha2c receptor
[6] = Binding affinity to rat benzodiazepine receptor
B2 bradykinin receptor = B2 bradykinin receptor (Homo sapiens, UniProt P30411); assay: Binding affinity to human recombinant bradykinin B2 receptor
[7] = molecular target: Voltage-gated L-type calcium channel (Rattus norvegicus, UniProt P22002+Q02485+P27732); assay: Binding affinity to rat L-type calcium channel
[8] = molecular target: Cholecystokinin receptor type A (Homo sapiens, UniProt P32238); assay: Binding affinity to human recombinant cholecystokinin A receptor
[9] = molecular target: Corticotropin-releasing factor receptor 2 (Homo sapiens, UniProt Q13324); assay: Binding affinity to human recombinant CRF2alpha receptor
D(2) dopamine receptor = D(2) dopamine receptor (Homo sapiens, UniProt P14416); assay: Binding affinity to human recombinant dopamine D2 receptor
Endothelin-1 receptor = Endothelin-1 receptor (Homo sapiens, UniProt P25101); assay: Binding affinity to human recombinant endothelin A receptor
Estrogen receptor beta = Estrogen receptor beta (Homo sapiens, UniProt Q92731); assay: Binding affinity to human recombinant ERbeta
Histamine H1 receptor = Histamine H1 receptor (Homo sapiens, UniProt P35367); assay: Binding affinity to human recombinant histamine H1 receptor
[10] = molecular target: Neuropeptide Y receptor type 1 (Homo sapiens, UniProt P25929); assay: Binding affinity to human recombinant neuropeptide Y1 receptor
[11] = molecular target: Neurotensin receptor type 1 (Homo sapiens, UniProt P30989); assay: Binding affinity to human recombinant neurotensin NT1 receptor
[12] = Binding affinity to human recombinant nicotinic (CNS) receptor
Phosphodiesterase 3 = Phosphodiesterase 3 (Homo sapiens, UniProt Q14432+Q13370); assay: Binding affinity to human recombinant PDE3; type: protein assay
[13] = molecular target: 3',5'-cyclic-AMP phosphodiesterase 4D (Homo sapiens, UniProt Q08499); assay: Binding affinity to human recombinant PDE4D
[14] = molecular target: 5-hydroxytryptamine receptor 2C (Homo sapiens, UniProt P28335); assay: Binding affinity to human recombinant serotonin 5HT2C receptor
Thromboxane A2 receptor = Thromboxane A2 receptor (Homo sapiens, UniProt P21731); assay: Binding affinity to human recombinant thromboxane A2 receptor
Vasopressin V2 receptor = Vasopressin V2 receptor (Homo sapiens, UniProt P30518); assay: Binding affinity to human recombinant vasopressin V2 receptor
[15] = AUC (0 to infinity) in CD1 mouse at 5.4 mg/kg, iv; type: ADME, organism-based; design: time infinity, dose 5.4 mg/kg, route intravenous; conditions: plasma
[16] = Cmax in CD1 mouse at 24.6 mg/kg, po; type: ADME, organism-based; design: dose 24.6 mg/kg, route oral; conditions: in vivo
[17] = Volume of distribution at steady state in Wistar rat at 5 mg/kg, iv; type: ADME, organism-based; design: dose 5 mg/kg, route intravenous; conditions: in vivo, read-out: Vdss
[18] = Intrinsic clearance in dog liver microsome; type: ADME, Canis lupus familiaris; conditions: liver microsomes
Plasmodium berghei [19] = assay: Antimalarial activity against Plasmodium berghei GFP ANKA infected in NMRI mice (Mus musculus) assessed as cure rate at 30 mg/kg, perorally administered as single dose 24 hrs post infection for 1 day measured 30 days post infection; type: functional; conditions: route oral
Plasmodium berghei [20] = assay: Antimalarial activity against Plasmodium berghei GFP ANKA infected in NMRI mice (Mus musculus) assessed as reduction in parasitaemia at 30 mg/kg, perorally administered through 0.5% MCM/0.1%solutol HS15 formulation 24 hrs post infection for 3 days measured 96 hrs post infection; type: functional; design: scale not given: the % may be the effect or the level left; conditions: route oral
Plasmodium berghei [21] = assay: Antimalarial activity against Plasmodium berghei GFP ANKA infected in NMRI mice (Mus musculus) assessed as survival at 10 mg/kg, perorally administered through 0.5% MCM/0.1%solutol HS15 formulation 24 hrs post infection for 3 days measured 96 hrs post infection; type: functional; conditions: route oral
Plasmodium berghei [22] = assay: Antimalarial activity against Plasmodium berghei GFP ANKA infected in NMRI mice (Mus musculus) assessed as survival at 50 mg/kg, perorally administered through 0.5% MCM/0.1%solutol HS15 formulation 24 hrs post infection for 3 days measured 96 hrs post infection; type: functional; conditions: route oral
Plasmodium berghei [23] = assay: Antimalarial activity against Plasmodium berghei GFP ANKA infected in NMRI mice (Mus musculus) assessed as cure rate at 30 mg/kg, perorally administered through 0.5% MCM/0.1%solutol HS15 formulation 24 hrs post infection for 3 days measured on day 30 post infection; type: functional; conditions: route oral
Plasmodium falciparum [24] = assay: Antimalarial activity against NITD609-resistant Plasmodium falciparum Dd2 Clone2 bearing P-type ATPase4 T418N and P990R mutations after 72 hrs by SYBR green based fluorescence assay; type: functional, organism-based; conditions: Dd2, 72 h
[25] = Solubility in pH 6.8 nuffer; type: physicochemical; conditions: buffer
Plasmodium falciparum [26] = assay: Inhibition of protein synthesis in NITD609-resistant Plasmodium falciparum Dd2 Clone3 within 1 hrs by [35S]Met/Cys incorporation assay; type: functional
Mus musculus = assay: Toxicity in Plasmodium berghei GFP ANKA infected NMRI mice (Mus musculus) assessed as reduction in parasitemia dosed in ETPGS formulation 1 day postinfection measured 72 hrs post infection; type: organism-based; conditions: in vivo
Plasmodium falciparum [27] = assay: microbe, parasite or virus in culture; conditions: Dd2, 72 h

Sequence of B2 bradykinin receptor (P30411 whole entry): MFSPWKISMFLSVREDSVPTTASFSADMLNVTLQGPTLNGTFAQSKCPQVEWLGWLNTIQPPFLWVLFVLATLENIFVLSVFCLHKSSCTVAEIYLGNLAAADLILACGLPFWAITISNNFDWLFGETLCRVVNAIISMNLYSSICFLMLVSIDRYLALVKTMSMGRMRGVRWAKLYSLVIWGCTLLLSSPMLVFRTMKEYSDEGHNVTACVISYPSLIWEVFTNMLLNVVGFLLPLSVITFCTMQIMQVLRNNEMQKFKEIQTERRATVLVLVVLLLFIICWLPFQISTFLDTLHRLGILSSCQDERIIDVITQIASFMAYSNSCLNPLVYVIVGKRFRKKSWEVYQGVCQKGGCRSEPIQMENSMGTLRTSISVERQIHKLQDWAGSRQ
Sequence of Histamine H1 receptor (P35367 whole entry): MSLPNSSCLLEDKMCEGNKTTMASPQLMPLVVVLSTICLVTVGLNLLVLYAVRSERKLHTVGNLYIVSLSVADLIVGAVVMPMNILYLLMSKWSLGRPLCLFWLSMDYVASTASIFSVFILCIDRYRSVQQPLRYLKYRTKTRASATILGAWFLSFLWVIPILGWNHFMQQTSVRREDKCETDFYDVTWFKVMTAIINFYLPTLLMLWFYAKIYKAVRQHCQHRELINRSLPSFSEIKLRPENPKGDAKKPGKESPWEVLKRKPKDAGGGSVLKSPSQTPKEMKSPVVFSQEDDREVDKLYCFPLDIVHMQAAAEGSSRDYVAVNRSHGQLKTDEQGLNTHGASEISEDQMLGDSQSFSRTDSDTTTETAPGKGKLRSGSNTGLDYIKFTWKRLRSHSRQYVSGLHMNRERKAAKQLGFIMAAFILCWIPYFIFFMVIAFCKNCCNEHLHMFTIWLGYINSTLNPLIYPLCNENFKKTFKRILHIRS
Sequence of Neurotensin receptor type 1 (P30989 whole entry): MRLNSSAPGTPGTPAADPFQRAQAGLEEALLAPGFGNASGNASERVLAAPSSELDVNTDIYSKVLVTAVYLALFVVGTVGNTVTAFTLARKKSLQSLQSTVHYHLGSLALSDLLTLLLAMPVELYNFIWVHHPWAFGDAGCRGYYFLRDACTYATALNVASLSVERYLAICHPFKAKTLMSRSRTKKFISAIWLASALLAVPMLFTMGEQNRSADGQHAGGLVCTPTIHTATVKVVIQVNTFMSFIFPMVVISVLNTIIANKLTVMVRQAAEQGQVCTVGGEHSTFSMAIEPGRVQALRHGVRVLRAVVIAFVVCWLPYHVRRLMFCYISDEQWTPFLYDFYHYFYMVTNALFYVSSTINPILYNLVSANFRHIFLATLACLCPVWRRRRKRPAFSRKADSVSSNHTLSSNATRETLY
Sequence of D(2) dopamine receptor (P14416 whole entry): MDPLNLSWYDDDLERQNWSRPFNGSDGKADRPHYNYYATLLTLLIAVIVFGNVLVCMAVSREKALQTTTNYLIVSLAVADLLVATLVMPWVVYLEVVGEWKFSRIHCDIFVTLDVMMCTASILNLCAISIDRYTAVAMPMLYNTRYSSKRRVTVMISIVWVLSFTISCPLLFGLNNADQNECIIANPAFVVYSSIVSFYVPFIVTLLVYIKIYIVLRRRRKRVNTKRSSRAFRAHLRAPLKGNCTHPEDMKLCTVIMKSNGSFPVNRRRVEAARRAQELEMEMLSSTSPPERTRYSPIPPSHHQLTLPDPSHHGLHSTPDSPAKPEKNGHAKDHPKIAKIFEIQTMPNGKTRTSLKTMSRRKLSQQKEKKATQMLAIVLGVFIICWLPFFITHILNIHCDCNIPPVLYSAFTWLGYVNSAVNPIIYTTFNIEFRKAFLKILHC
Sequence of Thromboxane A2 receptor (P21731 whole entry): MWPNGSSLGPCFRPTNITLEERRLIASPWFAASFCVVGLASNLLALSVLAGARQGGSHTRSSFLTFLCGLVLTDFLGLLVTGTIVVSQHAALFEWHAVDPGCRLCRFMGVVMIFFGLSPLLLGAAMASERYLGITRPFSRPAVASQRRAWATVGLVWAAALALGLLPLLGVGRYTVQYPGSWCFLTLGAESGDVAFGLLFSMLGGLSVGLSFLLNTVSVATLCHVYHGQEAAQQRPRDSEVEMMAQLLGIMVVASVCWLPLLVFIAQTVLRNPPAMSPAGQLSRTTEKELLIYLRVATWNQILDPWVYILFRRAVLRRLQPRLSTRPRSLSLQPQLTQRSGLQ
Sequence of Alpha-2C adrenergic receptor (P18825 whole entry): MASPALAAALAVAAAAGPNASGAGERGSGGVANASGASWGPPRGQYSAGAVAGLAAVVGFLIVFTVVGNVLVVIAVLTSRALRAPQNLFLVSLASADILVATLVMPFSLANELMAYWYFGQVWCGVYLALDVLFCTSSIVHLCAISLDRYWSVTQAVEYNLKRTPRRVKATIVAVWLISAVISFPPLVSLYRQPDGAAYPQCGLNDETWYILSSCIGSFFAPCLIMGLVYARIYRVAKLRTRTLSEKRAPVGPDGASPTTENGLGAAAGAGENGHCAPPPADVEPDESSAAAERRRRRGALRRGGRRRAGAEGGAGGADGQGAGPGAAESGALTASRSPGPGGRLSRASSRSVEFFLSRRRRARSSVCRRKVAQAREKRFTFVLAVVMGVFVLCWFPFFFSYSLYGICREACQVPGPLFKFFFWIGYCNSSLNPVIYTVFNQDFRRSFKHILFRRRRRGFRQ
Sequence of Beta-1 adrenergic receptor (P08588 whole entry): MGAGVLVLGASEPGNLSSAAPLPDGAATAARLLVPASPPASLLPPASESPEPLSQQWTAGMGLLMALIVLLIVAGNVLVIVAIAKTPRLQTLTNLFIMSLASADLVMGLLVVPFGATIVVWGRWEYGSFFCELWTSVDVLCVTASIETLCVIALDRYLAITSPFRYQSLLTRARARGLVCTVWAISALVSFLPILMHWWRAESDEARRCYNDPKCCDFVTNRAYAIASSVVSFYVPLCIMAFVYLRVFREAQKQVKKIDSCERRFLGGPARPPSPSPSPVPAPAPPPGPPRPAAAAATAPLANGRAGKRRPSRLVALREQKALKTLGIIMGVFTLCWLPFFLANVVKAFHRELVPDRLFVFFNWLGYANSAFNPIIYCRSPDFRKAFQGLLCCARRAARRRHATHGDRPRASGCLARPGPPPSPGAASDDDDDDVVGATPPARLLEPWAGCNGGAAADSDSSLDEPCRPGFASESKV
Sequence of Cholecystokinin receptor type A (P32238 whole entry): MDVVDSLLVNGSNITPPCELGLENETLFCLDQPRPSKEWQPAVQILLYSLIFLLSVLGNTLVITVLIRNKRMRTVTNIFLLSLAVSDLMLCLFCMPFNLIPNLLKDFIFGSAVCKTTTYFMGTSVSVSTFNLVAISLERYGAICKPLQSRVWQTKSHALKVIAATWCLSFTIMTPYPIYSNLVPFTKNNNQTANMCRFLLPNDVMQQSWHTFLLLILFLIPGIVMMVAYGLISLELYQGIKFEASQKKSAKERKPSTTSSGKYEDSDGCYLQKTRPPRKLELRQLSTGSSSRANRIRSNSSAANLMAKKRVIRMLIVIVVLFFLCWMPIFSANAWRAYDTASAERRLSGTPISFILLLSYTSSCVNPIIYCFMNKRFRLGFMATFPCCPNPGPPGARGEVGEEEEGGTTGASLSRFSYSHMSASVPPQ
Sequence of Neuropeptide Y receptor type 1 (P25929 whole entry): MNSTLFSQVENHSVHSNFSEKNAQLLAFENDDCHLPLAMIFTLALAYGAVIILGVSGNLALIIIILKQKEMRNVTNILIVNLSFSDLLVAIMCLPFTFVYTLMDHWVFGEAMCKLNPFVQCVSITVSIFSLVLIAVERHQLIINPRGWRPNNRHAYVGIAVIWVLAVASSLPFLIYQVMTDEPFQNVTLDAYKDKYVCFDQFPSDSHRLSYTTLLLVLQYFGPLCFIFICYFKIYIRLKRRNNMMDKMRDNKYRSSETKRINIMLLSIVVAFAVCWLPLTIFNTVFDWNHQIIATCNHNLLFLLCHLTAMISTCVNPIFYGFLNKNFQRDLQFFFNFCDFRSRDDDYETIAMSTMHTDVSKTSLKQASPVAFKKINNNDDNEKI
Sequence of Endothelin-1 receptor (P25101 whole entry): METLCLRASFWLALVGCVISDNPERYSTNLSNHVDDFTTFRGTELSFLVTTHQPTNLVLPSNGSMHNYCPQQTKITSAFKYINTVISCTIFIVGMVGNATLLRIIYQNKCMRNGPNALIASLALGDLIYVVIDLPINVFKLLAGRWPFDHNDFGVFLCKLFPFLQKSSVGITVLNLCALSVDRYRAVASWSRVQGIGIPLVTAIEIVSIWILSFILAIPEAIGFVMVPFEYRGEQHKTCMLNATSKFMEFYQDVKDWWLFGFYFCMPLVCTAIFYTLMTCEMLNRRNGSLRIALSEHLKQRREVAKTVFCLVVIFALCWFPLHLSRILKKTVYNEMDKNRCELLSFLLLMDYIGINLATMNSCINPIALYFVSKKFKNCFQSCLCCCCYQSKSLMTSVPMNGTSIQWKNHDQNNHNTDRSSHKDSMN
Sequence of Vasopressin V2 receptor (P30518 whole entry): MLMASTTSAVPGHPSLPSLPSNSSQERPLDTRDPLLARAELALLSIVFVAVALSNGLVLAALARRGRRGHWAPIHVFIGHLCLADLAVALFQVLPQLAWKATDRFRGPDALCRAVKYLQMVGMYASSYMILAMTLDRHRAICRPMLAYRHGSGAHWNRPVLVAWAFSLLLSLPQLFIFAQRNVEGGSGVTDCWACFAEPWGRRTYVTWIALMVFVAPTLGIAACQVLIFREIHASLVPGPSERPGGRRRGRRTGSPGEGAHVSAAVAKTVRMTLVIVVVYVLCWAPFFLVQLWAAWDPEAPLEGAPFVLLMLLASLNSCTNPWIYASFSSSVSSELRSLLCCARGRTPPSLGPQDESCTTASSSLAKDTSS

C[C@H]1Cc2c([nH]c3cc(Cl)c(F)cc23)[C@@]2(N1)C(=O)Nc1ccc(Cl)cc12 [CIPARGAMIN]
CC50 at 96 h [1]: 14 µM
CC50 at 96 h [2]: > 25 µM
IC50 [3]: > 10 µM
IC50 [4]: > 10 µM
IC50 [5]: > 10 µM
IC50 [6]: > 10 µM
IC50 (B2 bradykinin receptor): > 30 µM
IC50 [7]: > 10 µM
IC50 [8]: > 30 µM
IC50 [9]: > 30 µM
IC50 (D(2) dopamine receptor): > 10 µM
IC50 (Endothelin-1 receptor): > 30 µM
IC50 (Estrogen receptor beta): > 30 µM
IC50 (Histamine H1 receptor): > 10 µM
IC50 [10]: > 10 µM
IC50 [11]: > 10 µM
IC50 [12]: > 10 µM
IC50 (Phosphodiesterase 3): > 10 µM
IC50 [13]: > 10 µM
IC50 [14]: > 10 µM
IC50 (Thromboxane A2 receptor): > 30 µM
IC50 (Vasopressin V2 receptor): > 30 µM
AUC(0-inf) [15]: 23.9 µM·h
Cmax [16]: 9.17 µM
Vd [17]: 3.04 L/kg
CLint scaled [18]: 22.1 mL/min/kg
Activity (Plasmodium berghei [19]): 50%
Activity (Plasmodium berghei [20]): 99.8%
Survival (Plasmodium berghei [21]): 24.4 days
Survival (Plasmodium berghei [22]): 30 days
Activity (Plasmodium berghei [23]): 90%
IC50 (Plasmodium falciparum [24]): 0.0037 µM
solubility [25]: 39 µg/mL (≈ 99.9 µM)
inhibition (INH) (Plasmodium falciparum [26]): 50%
Activity (Mus musculus): Non-toxic
IC50 (Plasmodium falciparum [27]): 0.0028 µM
